# From article PMC10064330, “Reversible Dual-Covalent Molecular Locking of the 14-3-3/ERRγ Protein–Protein Interaction as a Molecular Glue Drug Discovery Approach” (Journal of the American Chemical Society, 2023)
# Molecular target: T1, 14-3-3γ/PKR complex (Homo sapiens, UniProt P61981)
# T1 construct: made in house; host or cells: E. coli NiCo21 (DE3)
# T1 sequence (P61981 1-247): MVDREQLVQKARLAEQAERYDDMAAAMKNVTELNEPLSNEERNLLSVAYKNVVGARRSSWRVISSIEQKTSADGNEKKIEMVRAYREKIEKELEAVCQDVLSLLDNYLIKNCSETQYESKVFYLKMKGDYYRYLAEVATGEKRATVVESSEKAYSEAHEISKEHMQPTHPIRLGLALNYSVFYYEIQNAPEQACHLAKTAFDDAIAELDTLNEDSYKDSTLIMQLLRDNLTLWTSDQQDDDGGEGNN
# Experiment: FA / TD-FA selectivity screen, PKR client peptide
# Format: binding
# Conditions: 100 μM compound
# Procedure: Drugging the hub protein 14-3-3 raises the challenge of selectivity, given that 14-3-3 binds several hundred phosphoprotein partners (Figure 4a).[54] We hypothesized that the interplay of chemical reactivity, the topology, and functionality of the composite binding pocket shaped by 14-3-3 and the interaction partner drives selective stabilization of the 14-3-3/ERRγ complex.[53] To validate selectivity, molecular locks 5 and 10 were tested against a panel of nine 14-3-3 client peptides in an FA assay, and the SF100 was determined for each 14-3-3 PPI (Figure 4b and Figures S18–S20). This client panel contained a diverse representation of 14-3-3 binding proteins, differing for example in size and hydrophobicity of the +1 amino acid. Importantly, clients PKR and RND3, each containing a +1 Cys, were included in the panel.
# To further assess off-target reactivity to +1 Cys-containing peptides, fragment 1, locks 5 and 10 were also screened against PKR and RND3 in the TD-FA assay.
# Figure S20. KD and SF100 plot – selectivity screen. […]
# nine different client peptides in presence of DMSO (negative control) or 100 µM of compound 1, 5 or 10 (based on binding curves in Figure S19). Also a bar plot representation of stabilization factor (SF100) of compounds 1, 5 and 10 for each of these peptides (bottom plot).
# (1 picture or pasted object on this page, not shown here)
# Experimental Section Biophysical Assays
# 14-3-3γ protein expression (FA, TSA, MS assays)
# A pPROEX HTb expression vector encoding the human 14-3-3 protein gamma (14-3-3γ) with a N-terminal his6-tag was transformed by heat shock into NiCo21 (DE3) competent cells. Single colonies were cultured in 50 mL LB medium (100 µg/mL ampicillin). After overnight incubation at 37 °C, cultures were transferred to 2 L TB media (100 µg/mL ampicillin, 1 mM MgCl2) and incubated at 37 °C until an OD600 nm of 0.8 -1.2 was reached. […] Finally, the protein was concentrated to ∼60 mg/mL, analyzed Q-Tof LC/MS, and aliquots were flash-frozen for storage at −80 °C. […]
row,Compound,stabilization of the PKR complex
1,"CN(C)CCSSCCN(C)C(=O)c1cccc(F)c1 [compound 1, reference compound]",no stabilization
2,CN(C)CCSSCCN(C)C(=O)c1cc(Br)cc(C=O)c1 [compound 10],no stabilization
3,CN(C)CCSSCCN(C)C(=O)c1ccc(C=O)c(F)c1 [compound 5],no stabilization
